Laboratory results as given in the NIST ThermoML archive (doi:10.1016/j.tca.2005.11.024).
± gives the expanded uncertainty stated by the source.

Assays:
[1] = molar heat capacity at constant pressure; details: 101.33 kPa, Small sample (50 mg) DSC
[2] = Molar enthalpy of transition or fusion; details: Crystal; DSC
[3] = Crystal; DTA

SMILES: CC(=O)c1ccsc1 [3-acetylthiophene]
- molar heat capacity at constant pressure ([1]; 268.15 K, Crystal): 134 ± 2.7 J/K/mol
- molar heat capacity at constant pressure ([1]; 270.15 K, Crystal): 134.9 ± 2.7 J/K/mol
- molar heat capacity at constant pressure ([1]; 275.15 K, Crystal): 136.7 ± 2.7 J/K/mol
- molar heat capacity at constant pressure ([1]; 280.15 K, Crystal): 138.7 ± 2.8 J/K/mol
- molar heat capacity at constant pressure ([1]; 285.15 K, Crystal): 140.3 ± 2.8 J/K/mol
- molar heat capacity at constant pressure ([1]; 290.15 K, Crystal): 142.4 ± 2.8 J/K/mol
- molar heat capacity at constant pressure ([1]; 295.15 K, Crystal): 145 ± 2.9 J/K/mol
- molar heat capacity at constant pressure ([1]; 298.15 K, Crystal): 146.1 ± 2.9 J/K/mol
- molar heat capacity at constant pressure ([1]; 300.15 K, Crystal): 147.5 ± 3 J/K/mol
- Molar enthalpy of transition or fusion [2]: 4.52 ± 0.0956 kcal/mol
- Normal melting temperature [3]: 60.5 ± 0.5 °C

SMILES: O=S1(=O)CCCOC1 [1,3-oxathiane-3,3-dioxide]
- molar heat capacity at constant pressure ([1]; 268.15 K, Crystal): 133.2 ± 2.7 J/K/mol
- molar heat capacity at constant pressure ([1]; 270.15 K, Crystal): 134.5 ± 2.7 J/K/mol
- molar heat capacity at constant pressure ([1]; 275.15 K, Crystal): 136.5 ± 2.7 J/K/mol
- molar heat capacity at constant pressure ([1]; 280.15 K, Crystal): 138.6 ± 2.8 J/K/mol
- molar heat capacity at constant pressure ([1]; 285.15 K, Crystal): 140.6 ± 2.8 J/K/mol
- molar heat capacity at constant pressure ([1]; 290.15 K, Crystal): 143.3 ± 2.9 J/K/mol
- molar heat capacity at constant pressure ([1]; 295.15 K, Crystal): 146.3 ± 2.9 J/K/mol
- molar heat capacity at constant pressure ([1]; 298.15 K, Crystal): 148.1 ± 3 J/K/mol
- molar heat capacity at constant pressure ([1]; 300.15 K, Crystal): 149.6 ± 3 J/K/mol
- molar heat capacity at constant pressure ([1]; 305.15 K, Crystal): 153.8 ± 3.1 J/K/mol
- molar heat capacity at constant pressure ([1]; 310.15 K, Crystal): 158.6 ± 3.2 J/K/mol
- molar heat capacity at constant pressure ([1]; 315.15 K, Crystal): 161.5 ± 3.2 J/K/mol
- molar heat capacity at constant pressure ([1]; 320.15 K, Crystal): 164.8 ± 3.3 J/K/mol
- molar heat capacity at constant pressure ([1]; 325.15 K, Crystal): 168.3 ± 3.4 J/K/mol
- molar heat capacity at constant pressure ([1]; 330.15 K, Crystal): 171.7 ± 3.4 J/K/mol
- molar heat capacity at constant pressure ([1]; 335.15 K, Crystal): 176.3 ± 3.5 J/K/mol
- Molar enthalpy of transition or fusion [2]: 3.63 ± 0.12 kcal/mol
- Normal melting temperature [3]: 79.8 ± 2 °C

SMILES: COC(=O)Cc1cccs1 [methyl 2-thiopheneacetate]
- molar heat capacity at constant pressure ([1]; 298.15 K, Liquid): 249.8 ± 3.9 J/K/mol

SMILES: c1csc(-c2cccs2)c1 [2,2'-bithienyl]
- molar heat capacity at constant pressure ([1]; 263.15 K, Crystal): 175.4 ± 3.5 J/K/mol
- molar heat capacity at constant pressure ([1]; 265.15 K, Crystal): 176.2 ± 3.5 J/K/mol
- molar heat capacity at constant pressure ([1]; 270.15 K, Crystal): 178.3 ± 3.6 J/K/mol
- molar heat capacity at constant pressure ([1]; 275.15 K, Crystal): 182.4 ± 3.6 J/K/mol
- molar heat capacity at constant pressure ([1]; 280.15 K, Crystal): 185.6 ± 3.7 J/K/mol
- molar heat capacity at constant pressure ([1]; 285.15 K, Crystal): 189.3 ± 3.8 J/K/mol
- molar heat capacity at constant pressure ([1]; 290.15 K, Crystal): 192.9 ± 3.9 J/K/mol
- molar heat capacity at constant pressure ([1]; 291.15 K, Crystal): 193.6 ± 3.9 J/K/mol
- molar heat capacity at constant pressure ([1]; 295.15 K, Crystal): 198.5 ± 4 J/K/mol
- molar heat capacity at constant pressure ([1]; 298.15 K, Crystal): 205.5 ± 4.1 J/K/mol
- molar heat capacity at constant pressure ([1]; 300.15 K, Crystal): 218.1 ± 4.4 J/K/mol
- Molar enthalpy of transition or fusion [2]: 3.94 ± 0.12 kcal/mol
- Normal melting temperature [3]: 31.1 ± 0.5 °C

SMILES: O=C(O)Cc1cccs1 [2-thiopheneacetic acid]
- molar heat capacity at constant pressure ([1]; 268.15 K, Crystal): 146.3 ± 2.9 J/K/mol
- molar heat capacity at constant pressure ([1]; 270.15 K, Crystal): 147.2 ± 2.9 J/K/mol
- molar heat capacity at constant pressure ([1]; 275.15 K, Crystal): 149.6 ± 3 J/K/mol
- molar heat capacity at constant pressure ([1]; 280.15 K, Crystal): 150.9 ± 3 J/K/mol
- molar heat capacity at constant pressure ([1]; 285.15 K, Crystal): 153.4 ± 3.1 J/K/mol
- molar heat capacity at constant pressure ([1]; 290.15 K, Crystal): 155.2 ± 3.1 J/K/mol
- molar heat capacity at constant pressure ([1]; 295.15 K, Crystal): 157.6 ± 3.2 J/K/mol
- molar heat capacity at constant pressure ([1]; 298.15 K, Crystal): 159.2 ± 3.2 J/K/mol
- molar heat capacity at constant pressure ([1]; 300.15 K, Crystal): 160.3 ± 3.2 J/K/mol
- molar heat capacity at constant pressure ([1]; 305.15 K, Crystal): 163.9 ± 3.3 J/K/mol
- molar heat capacity at constant pressure ([1]; 310.15 K, Crystal): 166.1 ± 3.3 J/K/mol
- molar heat capacity at constant pressure ([1]; 315.15 K, Crystal): 168.5 ± 3.4 J/K/mol
- molar heat capacity at constant pressure ([1]; 320.15 K, Crystal): 170.5 ± 3.4 J/K/mol
- molar heat capacity at constant pressure ([1]; 325.15 K, Crystal): 173.6 ± 3.5 J/K/mol
- Molar enthalpy of transition or fusion [2]: 3.35 ± 0.12 kcal/mol
- Normal melting temperature [3]: 64.2 ± 0.5 °C

SMILES: CC(=O)c1cccs1 [2-acetylthiophene]
- molar heat capacity at constant pressure ([1]; 298.15 K, Liquid): 205.7 ± 4.2 J/K/mol

SMILES: c1cscn1 [1,3-thiazole]
- molar heat capacity at constant pressure ([1]; 298.15 K, Liquid): 122.1 ± 2.2 J/K/mol

SMILES: O=C(O)c1ccc(C(=O)O)s1 [2,5-thiophenedicarboxylic acid]
- molar heat capacity at constant pressure ([1]; 277.15 K, Crystal): 161.4 ± 3.2 J/K/mol
- molar heat capacity at constant pressure ([1]; 280.15 K, Crystal): 162.7 ± 3.3 J/K/mol
- molar heat capacity at constant pressure ([1]; 285.15 K, Crystal): 163.7 ± 3.3 J/K/mol
- molar heat capacity at constant pressure ([1]; 290.15 K, Crystal): 164.7 ± 3.3 J/K/mol
- molar heat capacity at constant pressure ([1]; 295.15 K, Crystal): 166.4 ± 3.3 J/K/mol
- molar heat capacity at constant pressure ([1]; 298.15 K, Crystal): 167.1 ± 3.3 J/K/mol
- molar heat capacity at constant pressure ([1]; 300.15 K, Crystal): 167.7 ± 3.4 J/K/mol
- molar heat capacity at constant pressure ([1]; 305.15 K, Crystal): 169.5 ± 3.4 J/K/mol
- molar heat capacity at constant pressure ([1]; 310.15 K, Crystal): 171 ± 3.4 J/K/mol
- molar heat capacity at constant pressure ([1]; 315.15 K, Crystal): 173.1 ± 3.5 J/K/mol
- molar heat capacity at constant pressure ([1]; 320.15 K, Crystal): 175.1 ± 3.5 J/K/mol
- molar heat capacity at constant pressure ([1]; 325.15 K, Crystal): 177 ± 3.5 J/K/mol
- molar heat capacity at constant pressure ([1]; 330.15 K, Crystal): 178.1 ± 3.6 J/K/mol
- molar heat capacity at constant pressure ([1]; 335.15 K, Crystal): 179.7 ± 3.6 J/K/mol
- molar heat capacity at constant pressure ([1]; 340.15 K, Crystal): 180.8 ± 3.6 J/K/mol
- molar heat capacity at constant pressure ([1]; 345.15 K, Crystal): 182.3 ± 3.6 J/K/mol
- molar heat capacity at constant pressure ([1]; 350.15 K, Crystal): 184 ± 3.7 J/K/mol
- molar heat capacity at constant pressure ([1]; 355.15 K, Crystal): 186.1 ± 3.7 J/K/mol
- molar heat capacity at constant pressure ([1]; 360.15 K, Crystal): 186.4 ± 3.7 J/K/mol
- molar heat capacity at constant pressure ([1]; 365.15 K, Crystal): 190.1 ± 3.8 J/K/mol
- molar heat capacity at constant pressure ([1]; 370.15 K, Crystal): 192.4 ± 3.8 J/K/mol
- molar heat capacity at constant pressure ([1]; 375.15 K, Crystal): 194.2 ± 3.9 J/K/mol
- molar heat capacity at constant pressure ([1]; 380.15 K, Crystal): 196.7 ± 3.9 J/K/mol
- molar heat capacity at constant pressure ([1]; 385.15 K, Crystal): 198.7 ± 4 J/K/mol
- molar heat capacity at constant pressure ([1]; 390.15 K, Crystal): 200.9 ± 4 J/K/mol
- molar heat capacity at constant pressure ([1]; 395.15 K, Crystal): 203.3 ± 4.1 J/K/mol
- molar heat capacity at constant pressure ([1]; 400.15 K, Crystal): 206.1 ± 4.1 J/K/mol
- molar heat capacity at constant pressure ([1]; 405.15 K, Crystal): 209.6 ± 4.2 J/K/mol
- molar heat capacity at constant pressure ([1]; 410.15 K, Crystal): 210.9 ± 4.2 J/K/mol
- molar heat capacity at constant pressure ([1]; 415.15 K, Crystal): 213.7 ± 4.3 J/K/mol
- molar heat capacity at constant pressure ([1]; 420.15 K, Crystal): 216.3 ± 4.3 J/K/mol
- molar heat capacity at constant pressure ([1]; 425.15 K, Crystal): 219.4 ± 4.4 J/K/mol
- molar heat capacity at constant pressure ([1]; 430.15 K, Crystal): 223.1 ± 4.5 J/K/mol
- molar heat capacity at constant pressure ([1]; 435.15 K, Crystal): 225.5 ± 4.5 J/K/mol
- molar heat capacity at constant pressure ([1]; 440.15 K, Crystal): 228.1 ± 4.6 J/K/mol
- molar heat capacity at constant pressure ([1]; 445.15 K, Crystal): 229.8 ± 4.6 J/K/mol
